Experimental findings from patent US20240325419A1, “PHARMACEUTICAL COMPOSITION FOR RESTORING PHYSIOLOGICAL PROCESSES AND CELLS OF ORGANISM” (priority 2022, published 2024) are described below.

“Also recorded” adds a separate entry of the source.

Data set [1] concerns HT-1080 human fibrosarcoma cell line. Nature of the data set: Cytotoxicity on the cells culture HT1080. The format is cell-based. The note with it: TiO2 or SiO2 600 mcg/ml, cyclodextrin 5000 mcg/ml, Doxorubicin 200 mcg/ml.
Procedure: (§1) In these studies cells (5×10^4) were seeded in 6-well plates and cultured in RPMI-1640 medium containing 10% fetal bovine serum. The cultures were incubated for 2 hours in CO2 thermostate at 37° C. After the preincubation period the medium was removed, the cells were washed with physiological saline (2×1 ml 0.9% NaCl) and exposed to testing samples applying various concentrations for 60 min. After removing the test compounds fresh RPMI 1640 medium containing 10% FBS was added and the cultures were incubated for further 24 hours at 37° C. in humidified thermostate (5% CO2). At the end of the posttreatment period the medium as supernatants of the cultures, containing released cells was removed and saved for cell counting.
Another data set concerns human tumour cell lines. Kind of data set: Cytotoxicity and cytomorphology of test substances, conclusions (cell line not given). The settings on record: Doxorubicin 0.2 mg/ml; HPBCD 5 mg/ml.
For the next data set, the system named is Caenorhabditis elegans. Kind of data set: Life duration of Caenorhabditis elegans on NGM plates. The format is in vivo. How it is done:
ADAM QD/T, TiO2 aqueous nanodispersion used for researches on the animals, was sterile nanodispersion, of pharmaceutical class, in concentration 0.6 mg/ml. • 2. […] SBECD, Sulfobutylated beta-cyclodextrin sodium salt, Budapest, Hungary DEXOLVE® pharma grade (DS 6.5), powder in concentration 0.3 mg/ml. Protocol of researches and step-by-step methodology: • embryos were isolated (synchronization) • larvae of identical phase (L4) were placed on the standard NGM (nematode growth medium) […] plates in the Petri dishes. • all the animals were in the age from first up to ninth day of life and lived in a medium containing the above-listed components, after ninth day they were placed in standard […] without other additions as FUDR. • deaths of the animals were constantly registered as a time function • the curves of life duration were created on the basis of read indications. Composition of NGM plates (all the chemical compounds and reagents of analytical class); NaCl, agar, peptone, 5 mg/ml cholesterol in ethanol, non-autoclaved, 1 M K3PO4 buffer pH 6.0 (108.3 g KH2PO4, 35.6 g K2HPO4, H2O for 1 liter), 1M MgSO4, Petri dishes, peristaltic pump. The results present average of three parallel, independent definitions, research cycles of C. elegans.

Procedure for human tumour cell lines: • A. ZR-75.1 Her-2 expressing human breast adenocarcinoma cell line. • B. HT-1080: H-ras expressing, producing matrix metalloprotease 2,9 human fibrosarcoma cell line, • C. Daoy Medulloblastoma cell line
as §1

For the compound `COc1cccc2c1C(=O)c1c(O)c3c(c(O)c1C2=O)C[C@@](O)(C(=O)CO)C[C@@H]3O[C@H]1C[C@H](N)[C@H](O)[C@H](C)O1` [Doxorubicin], the values for the Cytotoxicity entry (in data set [1]; in the data set on human tumour cell lines) were “evident cytotoxicity; also recorded: significant cytotoxicity” and “moderate cytotoxicity”, respectively.
Turning to “Sulfobutylated beta-cyclodextrin sodium salt [SBECD]”, the “Number of living C. elegans (%)” value with Caenorhabditis elegans (life duration 10 days) turned out to be 90%; with Caenorhabditis elegans (life duration 13 days) it was 41%; in the data set with Caenorhabditis elegans (life duration 14 days), 20%; with Caenorhabditis elegans (life duration 15 days), 7%; in the data set on Caenorhabditis elegans (life duration 18 days) it was 0%.
